Data: PMC3020970, “K70Q Adds High-Level Tenofovir Resistance to “Q151M Complex” HIV Reverse Transcriptase through the Enhanced Discrimination Mechanism” (PLoS ONE, 2011)
Several values for one entry are separate records, joined by “and”; a condition that tells them apart may be missing. Equal values may be shown once.

Assays:
HIV-1 WT = assay: Single-cycle drug susceptibility assay (MAGIC-5 cells), recombinant WT clone; assay type: cell-based; settings: Human immunodeficiency virus 1, Table S2
Method: (§1) The NL4-3-based molecular clone was constructed by replacing the pol-coding region with the HIV-1 BH10 strain. […] Each molecular clone was transfected into COS-7 cells. Cells were grown for 48 h, and culture supernatants were harvested and stored at −80°C until use.
(§2) Susceptibilities to various RT inhibitors were determined using the MAGIC-5 cells which are HeLa cells stably transfected with a β-galactosidase gene under the control of an HIV long terminal repeat promoter, and with vectors that express the CD4 receptor and the CCR5 co-receptor under the control of the CMV promoter as described previously. Briefly, MAGIC-5 cells were infected with diluted virus stock (100 blue forming units) in the presence of increasing concentrations of RT inhibitors, cultured for 48 h, fixed, and stained with X-Gal (5-bromo-4-chloro-3-indolyl-β-D-galacto-pyranoside). The stained cells were counted under a light microscope.

HIV-1 K70G = assay: Single-cycle drug susceptibility assay (MAGIC-5 cells); assay type: cell-based
Method: as §1, §2

HIV-1 Q151Mc/K70Q = assay: as above; assay type: cell-based
Method: as §1, §2

HIV-1 Q151Mc/K70E = assay: as above; assay type: cell-based
Method: as §1, §2

HIV-1 Q151Mc/K70T = assay: as above; assay type: cell-based
Method: as §1, §2

HIV-1 K70Q = assay: as above; assay type: cell-based; settings: Human immunodeficiency virus 1, MAGIC-5; K70Q
Method: as §1, §2

HIV-1 K70T = assay: as above; assay type: cell-based
Method: as §1, §2

HIV-1 Q151Mc = assay: as above; assay type: cell-based; settings: Human immunodeficiency virus 1, MAGIC-5
Method: as §1, §2

HIV-1 K70R = assay: as above; assay type: cell-based
Method: as §1, §2

HIV-1 K70N = assay: as above; assay type: cell-based
Method: as §1, §2

HIV-1 Q151Mc/K70R = assay: as above; assay type: cell-based
Method: as §1, §2

HIV-1 K70E = assay: as above; assay type: cell-based
Method: as §1, §2

HIV-1 Q151Mc/K70G = assay: as above; assay type: cell-based
Method: as §1, §2

HIV-1 Q151Mc/K70N = assay: as above; assay type: cell-based
Method: as §1, §2

HIV-1 NL4-3 strain (WT) = assay: microbe, parasite or virus in culture; assay type: cell-based; settings: Human immunodeficiency virus 1, NL43; WT, MAGIC-5 cells, Table S1; read-out: EC50
Method: as §2

HIV-1 RT K70Q = target: T1, HIV-1 RT K70Q (Human immunodeficiency virus type 1 group M subtype B, UniProt P03366, K669Q); assay: Pre-steady state kinetics of binding and incorporation; assay type: biochemical; settings: K70Q RT
T1 construct: made in house; host or cells: Escherichia coli BL21
Method: (§3) The reactions were quenched at various times (10 ms to 5 s) by adding EDTA to a final concentration of 50 mM. The amounts of product (P18-dAMP) were quantitated and fit to the following burst equation: [drawing 1] (1) where A is the amplitude of the burst phase that represents the RT-DNA complex at the start of the reaction, k obs is the observed burst rate constant for dNTP incorporation, k ss is the steady state rate constant, and t is the reaction time. The rate constant of the linear phase (kcat) can be estimated by dividing the slope of the linear phase by the enzyme concentration. The active site concentration and template/primer binding affinity (KD-DNA) were determined by plotting the amplitude (A) against the concentration of template/primer. The data were fit using non-linear regression to a quadratic equation: [drawing 2] (2) where KD is the dissociation constant for the RT-DNA complex, and [RT] is the concentration of active polymerase molecules. Subsequent biochemical experiments were performed using corrected active site concentrations, [43].
(§4) HIV-1 RT (50 nM active sites) was pre-incubated with 50 nM T31/P18 in one syringe (Syringe A), whereas varying concentrations of dNTP and 10 mM MgCl2 were kept in another syringe (Syringe B). The solutions were rapidly mixed to initiate reactions, which were subsequently quenched at various times (5 ms to 10 s) by adding EDTA to a final concentration of 50 mM. The products from each quenched reaction were resolved, quantitated, and plotted as described above. The data were fit by non-linear regression to the burst equation (Eq 1).
(§5) To obtain the dissociation constant KD-dNTP for dNTP binding to the RT-DNA complex, the observed burst rates (kobs) were fit to the hyperbolic equation (Eq. 3) using nonlinear regression: [drawing 3] (3) where kpol is the optimal rate of dNTP incorporation.

HIV-1 RT WT = target: T2, HIV-1 RT WT (Human immunodeficiency virus type 1 group M subtype B, UniProt P03366); assay: as above; assay type: biochemical
T2 construct: made in house; host or cells: Escherichia coli BL21
Method: as §3, with “Determination of active site concentrations in the different preparations of WT and mutant RTs were performed using pre-steady state burst experiments. […] The reactions” for “The reactions”
as §4, §5
(§6) The kinetics of TFV incorporation by the WT and mutant enzymes were carried out in a manner similar to that employed for natural dNTP substrate except the time of reactions. It was noted that the mutant enzymes required longer time to incorporate TFV compared to the WT HIV-1 RT (detailed in the Results section).

HIV-1 RT K70Q/Q151Mc = target: T3, HIV-1 RT K70Q/Q151Mc (Human immunodeficiency virus type 1 group M subtype B, UniProt P03366, A661V/F676L/F715Y/K669Q/Q750M/V674I); assay: as above; assay type: biochemical; settings: K70Q/Q151Mc RT
T3 construct: made in house; host or cells: Escherichia coli BL21
Method: as §3, with “Determination of active site concentrations in the different preparations of WT and mutant RTs were performed using pre-steady state burst experiments. […] The reactions” for “The reactions”
as §4, §5, §6

HIV-1 RT Q151Mc = target: T4, HIV-1 RT Q151Mc (Human immunodeficiency virus type 1 group M subtype B, UniProt P03366, A661V/F676L/F715Y/Q750M/V674I); assay: as above; assay type: biochemical
T4 construct: made in house; host or cells: Escherichia coli BL21
Method: as §3, with “Determination of active site concentrations in the different preparations of WT and mutant RTs were performed using pre-steady state burst experiments. […] The reactions” for “The reactions”
as §4, §5, §6

Question: `Nc1ccn([C@@H]2CS[C@H](CO)O2)c(=O)n1` [3TC, lamivudine] was tested. Which EC50 (HIV-1 WT) did it give?
Answer: 1.4 ± 0.16 µM

Question: And the EC50 (HIV-1 K70G; Human immunodeficiency virus 1, MAGIC-5, K70G)?
Answer: 26 ± 0.58 µM

Question: And the “Fold increase in EC50 compared to HIV-1 WT” value (shortened to “Fold increase … to HIV-1 WT”) (HIV-1 K70G; K70G vs WT)?
Answer: (19) fold

Question: And the EC50 (HIV-1 Q151Mc/K70Q; Human immunodeficiency virus 1, MAGIC-5, Q151Mc/K70Q)?
Answer: 81 ± 0.08 µM

Question: And the “Fold increase in EC50 compared to HIV-1 Q151Mc” value (shortened to “Fold increase … to HIV-1 Q151Mc”) (HIV-1 Q151Mc/K70Q; Q151Mc/K70Q vs Q151Mc)?
Answer: (2.8) fold

Question: What about the EC50 (HIV-1 Q151Mc/K70E; Human immunodeficiency virus 1, MAGIC-5, Q151Mc/K70E) of the same molecule?
Answer: 11 ± 1.4 µM

Question: And the “Fold increase … to HIV-1 Q151Mc” value (HIV-1 Q151Mc/K70E; Q151Mc/K70E vs Q151Mc)?
Answer: (0.4) fold

Question: What about the EC50 (HIV-1 Q151Mc/K70T; Human immunodeficiency virus 1, MAGIC-5, Q151Mc/K70T) of the same molecule?
Answer: 12 ± 2.5 µM

Question: And the “Fold increase … to HIV-1 Q151Mc” value (HIV-1 Q151Mc/K70T; Q151Mc/K70T vs Q151Mc)?
Answer: (0.4) fold

Question: And the EC50 (HIV-1 K70Q)?
Answer: 4.6 ± 0.53 µM

Question: And the EC50 (HIV-1 K70T; Human immunodeficiency virus 1, MAGIC-5, K70T)?
Answer: 4.3 ± 0.29 µM

Question: What about the “Fold increase … to HIV-1 WT” value (HIV-1 K70T; K70T vs WT) of the same molecule?
Answer: (3.1) fold

Question: What about the EC50 (HIV-1 Q151Mc) of the same molecule?
Answer: 29 ± 3.2 µM

Question: And the EC50 (HIV-1 K70R; Human immunodeficiency virus 1, MAGIC-5, K70R)?
Answer: 2.5 ± 0.46 µM

Question: And the “Fold increase … to HIV-1 WT” value (HIV-1 K70R; K70R vs WT)?
Answer: (1.8) fold

Question: And the EC50 (HIV-1 K70N; Human immunodeficiency virus 1, MAGIC-5, K70N)?
Answer: 2.2 ± 0.25 µM

Question: What about the “Fold increase … to HIV-1 WT” value (HIV-1 K70N; K70N vs WT) of the same molecule?
Answer: (1.6) fold

Question: And the EC50 (HIV-1 Q151Mc/K70R; Human immunodeficiency virus 1, MAGIC-5, Q151Mc/K70R)?
Answer: 16 ± 1.5 µM

Question: And the “Fold increase … to HIV-1 Q151Mc” value (HIV-1 Q151Mc/K70R; Q151Mc/K70R vs Q151Mc)?
Answer: (0.6) fold

Question: And the EC50 (HIV-1 K70E; Human immunodeficiency virus 1, MAGIC-5, K70E)?
Answer: 16 ± 2.1 µM

Question: And the “Fold increase … to HIV-1 WT” value (HIV-1 K70E; K70E vs WT)?
Answer: (11) fold

Question: And the EC50 (HIV-1 Q151Mc/K70G; Human immunodeficiency virus 1, MAGIC-5, Q151Mc/K70G)?
Answer: 46 ± 2.5 µM

Question: What about the “Fold increase … to HIV-1 Q151Mc” value (HIV-1 Q151Mc/K70G; Q151Mc/K70G vs Q151Mc) of the same molecule?
Answer: (1.6) fold

Question: What about the EC50 (HIV-1 Q151Mc/K70N; Human immunodeficiency virus 1, MAGIC-5, Q151Mc/K70N) of the same molecule?
Answer: 15 ± 1.7 µM

Question: What about the “Fold increase … to HIV-1 Q151Mc” value (HIV-1 Q151Mc/K70N; Q151Mc/K70N vs Q151Mc) of the same molecule?
Answer: (0.5) fold

Question: And the EC50 (HIV-1 NL4-3 strain (WT))?
Answer: 1.4 ± 0.15 µM

Question: Which results are given for `Nc1ncnc2c1ncn2[C@H]1C[C@H](O)[C@@H](COP(=O)(O)OP(=O)(O)OP(=O)(O)O)O1` [dATP]?
Answer: k pol (HIV-1 RT K70Q; T31/P18, 37°C): 8.4 ± 0.4 s⁻¹; Kd (HIV-1 RT K70Q; binding to RT-DNA complex): 3.8 ± 0.6 µM; k pol/Kd (HIV-1 RT WT): 2.4e+06 M⁻¹ s⁻¹ and 2.4e+06 ± 200000 M⁻¹ s⁻¹; k pol (HIV-1 RT WT; T31/P18, 37°C): 6.3 s⁻¹ and 6.3 ± 0.5 s⁻¹; Kd (HIV-1 RT WT; binding to RT-DNA complex): 2.6 ± 0.1 µM; k pol/Kd (HIV-1 RT K70Q/Q151Mc): 2.9e+06 M⁻¹ s⁻¹ and 2.9e+06 ± 300000 M⁻¹ s⁻¹; k pol (HIV-1 RT K70Q/Q151Mc; T31/P18, 37°C): 14.6 s⁻¹ and 14.6 ± 1.6 s⁻¹; Kd (HIV-1 RT K70Q/Q151Mc; binding to RT-DNA complex): 5 ± 0.07 µM; k pol/Kd (HIV-1 RT Q151Mc): 3.3e+06 M⁻¹ s⁻¹ and 3.3e+06 ± 300000 M⁻¹ s⁻¹; k pol (HIV-1 RT Q151Mc; T31/P18, 37°C): 17.9 s⁻¹ and 17.9 ± 0.4 s⁻¹; Kd (HIV-1 RT Q151Mc; binding to RT-DNA complex): 5.4 ± 0.5 µM
